The source made the active and inactive calls.
What was measured:
Format in all cases: functional
[1] = tested on: CHO-K1; test: (§1) Counterscreen for antagonists of the orexin 1 receptor (OX1R; HCRTR1): Homogeneous time resolved fluorescence (HTRF)-based cell-based dose response assay to identify antagonists of the parental CHO-K1 cell line. [Related pubchem assays (depositor defined):AID434989, AID435008, AID463079, AID485270, AID492963, AID492964, AID492965, AID493232, AID504699, AID504701]; settings: Cricetulus griseus
[2] = as §1, with “Fluorescence-based” for “Homogeneous time resolved fluorescence (HTRF)-based”, “cell-based high throughput” for “cell-based”, “CHO” for “CHO-K1”
[3] = target: T1, Orexin/Hypocretin receptor type 1 (Homo sapiens, UniProt O43613); test: Homogeneous Time Resolved Fluorescence (HTRF)-based cell-based high throughput dose response assay for antagonists of the orexin 1 receptor (OX1R; HCRTR1). [Related pubchem assays (depositor defined):AID434989, AID435008, AID463079, AID485270, AID492963, AID492964, AID492965, AID493232, AID504717, AID504718]
T1 sequence (O43613 whole entry): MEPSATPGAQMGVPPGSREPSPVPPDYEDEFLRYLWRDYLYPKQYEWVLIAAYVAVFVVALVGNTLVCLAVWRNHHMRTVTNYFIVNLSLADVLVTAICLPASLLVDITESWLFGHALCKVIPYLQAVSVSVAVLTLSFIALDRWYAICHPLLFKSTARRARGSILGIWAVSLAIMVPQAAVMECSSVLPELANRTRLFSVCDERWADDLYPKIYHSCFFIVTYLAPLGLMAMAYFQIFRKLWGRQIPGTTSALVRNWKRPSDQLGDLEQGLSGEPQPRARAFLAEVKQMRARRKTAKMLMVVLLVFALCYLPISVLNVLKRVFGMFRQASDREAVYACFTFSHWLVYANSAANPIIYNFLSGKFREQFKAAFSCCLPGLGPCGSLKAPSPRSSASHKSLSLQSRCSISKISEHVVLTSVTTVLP

[4] = target: T2, Heat shock factor protein 1 (Mus musculus, UniProt P38532); test: enhancement of HSF1-driven luciferase signal – cell-based, NIH3T3, luminescence, dose retest, confirmation (AID 435004);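 further: stress induced by proteasome inhibitor MG132 added 30 min after compound; luciferase reporter driven by HSF1 response element in NIH3T3 cells; actives raise luminescence as potentiators of the MG132 stress response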
T2 sequence (P38532 whole entry): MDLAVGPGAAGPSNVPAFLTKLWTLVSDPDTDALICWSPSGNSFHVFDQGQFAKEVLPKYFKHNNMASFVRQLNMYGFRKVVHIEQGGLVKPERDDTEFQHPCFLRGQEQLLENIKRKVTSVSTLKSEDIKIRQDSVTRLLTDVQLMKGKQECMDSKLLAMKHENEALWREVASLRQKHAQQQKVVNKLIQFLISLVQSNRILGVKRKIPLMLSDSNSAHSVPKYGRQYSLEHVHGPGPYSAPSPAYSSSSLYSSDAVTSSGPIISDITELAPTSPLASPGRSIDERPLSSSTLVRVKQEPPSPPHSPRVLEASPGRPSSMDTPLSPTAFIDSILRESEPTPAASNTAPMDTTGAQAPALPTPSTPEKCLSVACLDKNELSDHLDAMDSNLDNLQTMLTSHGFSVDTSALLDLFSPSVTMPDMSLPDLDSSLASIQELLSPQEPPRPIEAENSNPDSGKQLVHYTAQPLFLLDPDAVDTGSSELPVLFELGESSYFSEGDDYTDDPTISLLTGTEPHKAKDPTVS

[5] = target: T1, Orexin/Hypocretin receptor type 1; test: Fluorescence-based cell-based high throughput dose response assay for antagonists of the orexin 1 receptor (OX1R; HCRTR1). [Related pubchem assays (depositor defined):AID434989, AID435008, AID463079, AID485270, AID492963, AID492964, AID492965, AID493232, AID504717, AID504718]

OC(CN1c2ccccc2Sc2ccccc21)Cn1nnc2ccccc21 (stereo not given)
inactive: IC50 [1] > 66.2 µM | IC50 [2] 21.3 µM | IC50 [3] 13.3 µM | EC50 [4] > 260 µM | IC50 [5] 16.4 µM
